Patent US12044684B2, “Methods for diagnosing an autistic spectrum disorder” (QATAR UNIVERSITY, priority 2018, dated 2024)

Test: Renal clearance (CL) of free adducts and unmodified amino acids deduced from plasma and spot urine
Type: in vivo, human
Conditions: children with ASD compared to healthy control; P<0.001
Text: In one embodiment, renal clearance amino acid adducts is deduced from the concentration of an amino acid adduct detected in a plasma and urine sample according to the following equation: CL (μl/mg creatinine or ml/mg creatinine)=[Analyte]Urine (nmol/mg creatinine)/[Analyte]Plasma (pmol/ml or nmol/ml).
Oxidation, nitration and glycation adduct residues are normalised to their amino acid residue precursors and given as mmol/mol amino acid modified; and related free adducts are given in nM. […] Renal clearance (CL) of glycation, oxidation and nitration free adducts and unmodified amino acids was deduced from plasma and spot urine collections: CL (μl/mg creatinine or ml/mg creatinine)=[Analyte]Urine (nmol/mg creatinine)/[Analyte]Plasma (pmol/ml or nmol/ml).

Row | SMILES | decrease in renal clearance (CL)
1 | N=C(N)NCCC[C@H](N)C(=O)O [arg, arginine] | 32%

Same assay, conditions: children with ASD with respect to healthy controls

Row | SMILES | renal clearance, change
2 | NC(Cc1ccc(O)c(-c2cc(CC(N)C(=O)O)ccc2O)c1)C(=O)O (stereo not drawn) [DT, dityrosine] | decreased
3 | N[C@@H](CCCCN1C[C@@H](O)[C@@H](O)CC2NC(=NCCC[C@H](N)C(=O)O)N=C21)C(=O)O (stereo partly drawn) [GSP, glucosepane] | decreased
4 | NC(CC(=O)c1ccccc1NC=O)C(=O)O (stereo not drawn) [NFK, N-formylkynurenine] | increased
5 | N=C(N)NCCC[C@H](N)C(=O)O [arg, arginine] | decreased
6 | N[C@@H](CCC(=O)O)C(=O)O [glu, glutamate] | decreased
7 | CC(C)C[C@H](N)C(=O)O [leu, leucine] | decreased
8 | N[C@@H](Cc1ccccc1)C(=O)O [phe, phenylalanine] | decreased
9 | C[C@@H](O)[C@H](N)C(=O)O [thr, threonine] | decreased
10 | N[C@@H](Cc1c[nH]c2ccccc12)C(=O)O [trp, tryptophan] | increased

Same assay, conditions: in vivo

Row | SMILES | decrease in renal clearance (CL) | renal clearance, change
11 | N=C(NCCC[C@H](N)C(=O)O)NCC(=O)O [CMA, Nω-carboxymethylarginine] | 50% | decreased
